Patent US20140221499A1, “NOVEL RODENT CONTROL AGENTS AND USES THEREOF” (priority 2011, published 2014)

Columns and labels:
Format in all cases: cell-based
olfactory TAARs = assay: TAAR reporter gene assay, panel of mouse and rat TAARs in HEK293 cells; conditions: for TAAR activation: mouse and rat TAARs
Excerpt: (§1) Here, we set out to identify agonists for additional mouse and rat TAARs. We examined odor response profiles using a previously established reporter gene assay based on cAMP-dependent odor transduction in olfactory sensory neurons (40, 42). Briefly, TAAR plasmids were transfected into HEK293 cells along with a cAMP-dependent reporter gene encoding secreted alkaline phosphatase (CRE-SEAP). TAARs were expressed both in unmodified form and as fusion proteins with an N-terminal sequence of bovine rhodopsin (‘Rho tag’) that promotes cell surface expression of some chemosensory receptors (35). Transfected cells were incubated with test chemicals, and phosphatase activity was quantified with a fluorescent substrate as a reporter for TAAR activation. In initial experiments, we tested 38 different odorant mixtures containing 244 structurally diverse test chemicals (2-5 μM) for the ability to activate each mTAAR. Subsequently, we tested 73 amines that included known mTAAR agonists and related chemicals for the ability to activate each rTAAR.
TAAR functional assays. Full Taar coding regions were cloned into pcDNA3.1-(Invitrogen) with or without a 5′ DNA extension of 69 bp encoding the first 20 amino acids of bovine rhodopsin followed by a cloning linker ([…]). Point mutations were introduced in mTAAR7e and mTAAR7f by overlap extension PCR. Functional assays were performed as described (40, 42). Fluorescence was measured on an EnVision plate reader (Perkin Elmer) and SEAP activity graphed as relative fluorescence of a phosphatase substrate.

mTAAR7b = molecular target: T1, mTAAR7b (Mus musculus, UniProt Q5QD11); assay: TAAR reporter gene assay, mTAAR7b; design: Full Taar coding regions were cloned into pcDNA3.1-(Invitrogen); Rho tag (first 20 aa of bovine rhodopsin + linker); expressed in transfected cells; host or cells: HEK293
T1 sequence (Q5QD11 1-358): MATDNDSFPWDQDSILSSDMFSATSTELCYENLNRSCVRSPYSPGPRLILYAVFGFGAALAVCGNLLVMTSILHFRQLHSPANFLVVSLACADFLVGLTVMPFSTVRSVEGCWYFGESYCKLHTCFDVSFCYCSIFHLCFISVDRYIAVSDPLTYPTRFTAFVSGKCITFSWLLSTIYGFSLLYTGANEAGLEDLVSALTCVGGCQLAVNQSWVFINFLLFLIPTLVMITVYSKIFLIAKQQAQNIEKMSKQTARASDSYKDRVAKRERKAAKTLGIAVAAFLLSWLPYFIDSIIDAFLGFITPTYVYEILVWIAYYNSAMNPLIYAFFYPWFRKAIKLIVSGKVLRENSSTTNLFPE
Excerpt: as §1
(§2) TAAR functional assays. […] Fluorescence was measured on an EnVision plate reader (Perkin Elmer) and SEAP activity graphed as relative fluorescence of a phosphatase substrate.

rTAAR7d = molecular target: T2, rTAAR7d (Rattus norvegicus, UniProt Q923X5); assay: TAAR reporter gene assay, rTAAR7d; design: Full Taar coding regions were cloned into pcDNA3.1-(Invitrogen); Rho tag (first 20 aa of bovine rhodopsin + linker); expressed in transfected cells; host or cells: HEK293
T2 sequence (Q923X5 1-358): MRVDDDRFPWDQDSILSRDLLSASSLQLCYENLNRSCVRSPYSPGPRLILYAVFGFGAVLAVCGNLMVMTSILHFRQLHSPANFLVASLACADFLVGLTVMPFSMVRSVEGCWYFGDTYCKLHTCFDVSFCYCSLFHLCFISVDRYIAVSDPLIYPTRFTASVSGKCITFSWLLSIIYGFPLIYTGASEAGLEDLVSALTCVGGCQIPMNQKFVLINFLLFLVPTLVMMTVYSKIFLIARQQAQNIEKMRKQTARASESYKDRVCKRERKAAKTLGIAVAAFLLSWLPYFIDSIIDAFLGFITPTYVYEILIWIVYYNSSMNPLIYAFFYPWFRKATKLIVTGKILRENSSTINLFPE
Excerpt: as §1, §2

mTAAR7e = molecular target: T3, mTAAR7e (Mus musculus, UniProt Q5QD09); assay: TAAR reporter gene assay, mTAAR7e
T3 construct: Full Taar coding regions were cloned into pcDNA3.1-(Invitrogen); Rho tag (first 20 aa of bovine rhodopsin + linker); expressed in transfected cells; host or cells: HEK293
T3 sequence (Q5QD09 1-358): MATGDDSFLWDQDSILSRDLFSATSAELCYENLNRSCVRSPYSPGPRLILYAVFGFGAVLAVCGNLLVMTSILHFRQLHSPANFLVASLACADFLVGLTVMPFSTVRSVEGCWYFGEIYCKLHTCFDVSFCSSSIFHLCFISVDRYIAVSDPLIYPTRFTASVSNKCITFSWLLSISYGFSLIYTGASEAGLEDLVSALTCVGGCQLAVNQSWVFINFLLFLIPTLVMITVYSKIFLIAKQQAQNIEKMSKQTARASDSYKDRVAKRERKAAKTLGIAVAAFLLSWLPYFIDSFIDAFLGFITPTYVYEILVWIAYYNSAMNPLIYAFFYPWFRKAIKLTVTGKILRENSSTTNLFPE
Excerpt: as §1, §2

rTAAR7h = molecular target: T4, rTAAR7h (Rattus norvegicus, UniProt Q923Y4); assay: TAAR reporter gene assay, rTAAR7h; design: Full Taar coding regions were cloned into pcDNA3.1-(Invitrogen); Rho tag (first 20 aa of bovine rhodopsin + linker); expressed in transfected cells; host or cells: HEK293
T4 sequence (Q923Y4 1-358): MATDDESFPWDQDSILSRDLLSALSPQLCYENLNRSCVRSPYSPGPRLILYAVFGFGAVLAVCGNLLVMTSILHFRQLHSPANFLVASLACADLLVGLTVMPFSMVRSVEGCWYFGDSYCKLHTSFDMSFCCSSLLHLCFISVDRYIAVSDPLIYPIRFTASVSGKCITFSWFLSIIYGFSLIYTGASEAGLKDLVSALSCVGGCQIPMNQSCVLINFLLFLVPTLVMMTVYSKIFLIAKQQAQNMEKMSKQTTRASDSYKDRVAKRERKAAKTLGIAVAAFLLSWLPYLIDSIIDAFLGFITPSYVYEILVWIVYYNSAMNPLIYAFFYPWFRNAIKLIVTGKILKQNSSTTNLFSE
Excerpt: as §1, §2

## NCCc1ccccc1 [2-phenylethylamine]
Olfactory TAARs; 10 μM (FIG. 2D)
  activation of other olfactory TAARs with identified ligands: did not similarly activate

## CN(C)CCc1ccccc1 [ligand 6, N,N-dimethyl-2-phenylethylamine]
mTAAR7b
  mTAAR7b activation: not
rTAAR7d
  rTAAR7d activation: not
mTAAR7e
  mTAAR7e activation: activated
rTAAR7h
  rTAAR7h activation: activated
Olfactory TAARs
  TAAR activation: activated different TAAR7 paralogs

## CN(C)C1CCCCC1 [ligand 10, N,N-dimethylcyclohexylamine]
mTAAR7b
  mTAAR7b activation: activated
rTAAR7d
  rTAAR7d activation: activated
mTAAR7e
  mTAAR7e activation: not
rTAAR7h
  rTAAR7h activation: not
Olfactory TAARs
  TAAR activation: activated different TAAR7 paralogs
